Common to all, as to format: functional, Anura
Design in all cases: scale not given: the % may be the effect or the level left

The test system of test [1] is Zone of skin. As to the kind of experiment: Melanocyte stimulating activity in frog skin assessed as decrease in reflectance at 2.3 ng relative to control.
The subject of test [2] is Zone of skin. The test is described as follows: Melanocyte stimulating activity in frog skin assessed as decrease in reflectance at 2.7 ng relative to control.
The subject of test [3] is Zone of skin. The test is described as follows: Melanocyte stimulating activity in frog skin assessed as decrease in reflectance at 2.7 to 8.1 ng relative to bovine beta-MSH.
Test [4] relates to Zone of skin. The test is described as follows: Melanocyte stimulating activity in frog skin assessed as decrease in reflectance at 2.7 to 8.1 ng relative to camel betaC2-MSH.
For test [5], the system named is Zone of skin. The test is described as follows: Melanocyte stimulating activity in frog skin assessed as decrease in reflectance at 6.9 ng relative to control.
Test [6] relates to Zone of skin. As to the kind of experiment: Melanocyte stimulating activity in frog skin assessed as decrease in reflectance at 8.1 ng relative to control.
For test [7], the system named is Zone of skin. The test is described as follows: Melanocyte stimulating activity in frog skin assessed as decrease in reflectance at 1.8 ng relative to control.
For test [8], the system named is Zone of skin. As to the kind of experiment: Melanocyte stimulating activity in frog skin assessed as decrease in reflectance at 5.4 ng relative to control.

On to H-DSGPYKMEHFRWGSPPKD-OH, for which the Activity in the test with Zone of skin [1] was 29.1%; with Zone of skin [2], 30.1%; in the test on Zone of skin [3], 120.2%; in the test on Zone of skin [4] it was 105.6%; in the test on Zone of skin [5], 44.6%; with Zone of skin [6] it was 49.6%.
On to H-DGGPYKMEHFRWGSPPKD-OH, for which the Activity stood at 36.4% in the test with Zone of skin [2]; 87.8% with Zone of skin [4]; 28.4% in the test on Zone of skin [7]; 56.5% with Zone of skin [6]; 53% in the test on Zone of skin [8].

The values are drawn from ChEMBL document CHEMBL3272243, “Synthesis and biological activity of camel and bovine beta-melanotropins” (1976).
